Results on 16 compounds are retold here after US20220324835A1 (Nurix Therapeutics, Inc., priority 2018, published 2022).

Experiment [1] has as its system T-cell. The experiment is described as follows: CD25 cell surface staining on T-cells stimulated with anti-CD3 antibody alone (Biological Example 2). Type of experiment: cell-based, human. As to conditions: T-cell, fold change over baseline, primary human total T-cells, read-out: CD25 staining Anti-CD3 stimulation; for fold induction at 1 µM: 1 μM Cbl-b inhibitor; for fold induction at 8 µM: 8 μM Cbl-b inhibitor.

In experiment [2] the test system is T-cell. The experiment in a line: IL-2 secretion from T-cells stimulated with anti-CD3 antibody alone (Biological Example 2). Type of experiment: cell-based, human. Conditions: T-cell, fold change over baseline, primary human total T-cells, read-out: IL-2 secretion Anti-CD3 stimulation; for fold induction at 1 µM: 1 μM Cbl-b inhibitor; for fold induction at 8 µM: 8 μM Cbl-b inhibitor.

The structures appear in SMILES notation.

Turning to `Cc1ncc(C(=O)Nc2cccc([C@H](C)Sc3nncn3C)c2)nc1C1CC1` [Compound 70, (S)-6-cyclopropyl-5-methyl-N-(3-(1-((4-methyl-4H-1,2,4-triazol-3-yl)thio)ethyl)phenyl)pyrazine-2-carboxamide], in the experiment with T-cell [1], the fold induction at 1 µM was in the range of 0.801 to 1 and the fold induction at 8 µM was in the range of 0.801 to 1. Moreover, in the experiment with T-cell [2], the fold induction at 1 µM is less than 0.05 and the fold induction at 8 µM is 0.051 to 0.1.

Consider `COc1cc(C(=O)Nc2cccc([C@H](C)Sc3nncn3C)c2)nc(C(F)(F)F)c1` [Compound 71, (S)-4-methoxy-N-(3-(1-((4-methyl-4H-1,2,4-triazol-3-yl)thio)ethyl)phenyl)-6-(trifluoromethyl)picolinamide], for which the fold induction at 1 µM in the experiment with T-cell [1] was in the range of 0.801 to 1; in the experiment with T-cell [2], 0.051 to 0.1. Also, the fold induction at 8 µM with T-cell [1] is 0.801 to 1; in the experiment on T-cell [2], more than 0.201.

Consider `C[C@H](Sc1nncn1C)c1cccc(NC(=O)c2ccnc(C(F)(F)F)n2)c1` [Compound 75, N-[3-[(1S)-1-[(4-methyl-1,2,4-triazol-3-yl)sulfanyl]ethyl]phenyl]-2-(trifluoromethyl)pyrimidine-4-carboxamide], for which, in the experiment on T-cell [1], the fold induction at 1 µM is 0.601 to 0.8 and the fold induction at 8 µM was in the range of 0.801 to 1. Also, in the experiment with T-cell [2], the fold induction at 1 µM is less than 0.05 and the fold induction at 8 µM was in the range of 0.051 to 0.1.

As for `C[C@H](Sc1nncn1C)c1cccc(NC(=O)c2cncc(C(F)(F)F)n2)c1` [Compound 77, N-[3-[(1S)-1-[(4-methyl-1,2,4-triazol-3-yl)sulfanyl]ethyl]phenyl]-6-(trifluoromethyl)pyrazine-2-carboxamide], in the experiment with T-cell [1], the fold induction at 1 µM is less than 0.6 and the fold induction at 8 µM is 0.601 to 0.8. Besides, in the experiment with T-cell [2], the fold induction at 1 µM is less than 0.05 and the fold induction at 8 µM is less than 0.05.

For the compound `C[C@H](Sc1nncn1C)c1cccc(NC(=O)c2cc3c(Cl)cccc3[nH]2)c1` [Compound 78, 4-chloro-A-[3-[(LS)-1-[(4-methyl-1,2,4-triazol-3-yl)sulfanyl]ethyl]phenyl]-1H-indole-2-carboxamide], the fold induction at 1 µM is 0.601 to 0.8 in the experiment on T-cell [1] and less than 0.05 in the experiment with T-cell [2]. In addition, the fold induction at 8 µM in the experiment with T-cell [1] is 0.801 to 1; with T-cell [2], more than 0.201.

On to `C[C@H](Sc1nncn1C)c1cccc(NC(=O)c2cccc(S(C)(=O)=O)n2)c1` [Compound 80, (S)-N-(3-(1-((4-methyl-4H-1,2,4-triazol-3-yl)thio)ethyl)phenyl)-6-(methylsulfonyl)picolinamide], for which, in the experiment on T-cell [1], the fold induction at 1 µM was less than 0.6 and the fold induction at 8 µM is less than 0.6. Besides, in the experiment on T-cell [2], the fold induction at 1 µM is less than 0.05 and the fold induction at 8 µM is less than 0.05.

For `C[C@H](Sc1nncn1C)c1cccc(NC(=O)c2cccc(C(C)(F)F)n2)c1` [Compound 81, (S)-6-(1,1-difluoroethyl)-N-(3-(1-((4-methyl-4H-1,2,4-triazol-3-yl)thio)ethyl)phenyl)picolinamide], in the experiment with T-cell [1], the fold induction at 1 µM lay in the range of 0.801 to 1 and the fold induction at 8 µM was more than 1. Also, in the experiment on T-cell [2], the fold induction at 1 µM was less than 0.05 and the fold induction at 8 µM lay within 0.151 to 0.2.

With `C[C@H](Sc1nncn1C)c1cccc(NC(=O)c2cc(C(C)(C)O)cc(C(F)(F)F)n2)c1` [Compound 85, 4-(1-hydroxy-1-methyl-ethyl)-N-[3-[(1S)-1-[(4-methyl-1,2,4-triazol-3-yl)sulfanyl]ethyl]phenyl]-6-(trifluoromethyl)pyridine-2-carboxamide], in the experiment on T-cell [1], the fold induction at 1 µM lay within 0.601 to 0.8 and the fold induction at 8 µM is more than 1. In the experiment with T-cell [2], the fold induction at 1 µM is less than 0.05 and the fold induction at 8 µM is less than 0.05.

Regarding `C[C@H](Sc1nncn1C)c1ccc(F)c(NC(=O)c2cccc(C(F)(F)F)n2)c1` [Compound 95a, (S)-N-(2-fluoro-5-(1-((4-methyl-4H-1,2,4-triazol-3-yl)thio)ethyl)phenyl)-6-(trifluoromethyl)picolinamide], in the experiment with T-cell [1], the fold induction at 1 µM is less than 0.6 and the fold induction at 8 µM is less than 0.6. Besides, in the experiment with T-cell [2], the fold induction at 1 µM is less than 0.05 and the fold induction at 8 µM was 0.051 to 0.1.

Consider `C[C@H](Sc1nnc[nH]1)c1cccc(NC(=O)c2cc3ccccc3cn2)c1` [Compound 98, (S)-N-(3-(1-((4H-1,2,4-triazol-3-yl)thio)ethyl)phenyl)isoquinoline-3-carboxamide], for which, in the experiment on T-cell [1], the fold induction at 1 µM was less than 0.6 and the fold induction at 8 µM was less than 0.6. In the experiment on T-cell [2], the fold induction at 1 µM fell in the range of 0.051 to 0.1 and the fold induction at 8 µM fell in the range of 0.051 to 0.1.

In the case of `Cc1cc(C(=O)Nc2cc([C@H](C)Sc3nncn3C)ccn2)nc(C(F)(F)F)c1` [Compound 103, (S)-4-methyl-N-(4-(1-((4-methyl-4H-1,2,4-triazol-3-yl)thio)ethyl)pyridin-2-yl)-6-(trifluoromethyl)picolinamide], in the experiment on T-cell [1], the fold induction at 1 µM is less than 0.6 and the fold induction at 8 µM fell in the range of 0.801 to 1. Also, in the experiment on T-cell [2], the fold induction at 1 µM was less than 0.05 and the fold induction at 8 µM was in the range of 0.051 to 0.1.

On to `C[C@H](Sc1nncn1C)c1ccnc(NC(=O)c2cc(C3CC3)cc(C(F)(F)F)n2)c1` [Compound 104, (S)-4-cyclopropyl-N-(4-(1-((4-methyl-4H-1,2,4-triazol-3-yl)thio)ethyl)pyridin-2-yl)-6-(trifluoromethyl)picolinamide], for which the figures for the fold induction at 1 µM in the experiment on T-cell [1] and in the experiment with T-cell [2] were 0.601 to 0.8 and less than 0.05, respectively. In addition, the results for the fold induction at 8 µM with T-cell [1] and in the experiment on T-cell [2] were 0.801 to 1 and less than 0.05, respectively.

`C[C@H](Sc1nncn1C)c1ccnc(NC(=O)c2cc(Cl)cc(C(F)(F)F)n2)c1` [Compound 105, (S)-4-chloro-N-(4-(1-((4-methyl-4H-1,2,4-triazol-3-yl)thio)ethyl)pyridin-2-yl)-6-(trifluoromethyl)picolinamide]: in the experiment on T-cell [1], the fold induction at 1 µM is less than 0.6 and the fold induction at 8 µM is 0.601 to 0.8. In addition, in the experiment on T-cell [2], the fold induction at 1 µM is less than 0.05 and the fold induction at 8 µM is less than 0.05.

For the compound `Cc1ccc(C(=O)Nc2cc([C@H](C)Sc3nncn3C)ccn2)nc1C1CC1` [Compound 113, (S)-6-cyclopropyl-5-methyl-N-(4-(1-((4-methyl-4H-1,2,4-triazol-3-yl)thio)ethyl)pyridin-2-yl)picolinamide], in the experiment with T-cell [1], the fold induction at 1 µM is less than 0.6 and the fold induction at 8 µM is less than 0.6. Further, in the experiment with T-cell [2], the fold induction at 1 µM was less than 0.05 and the fold induction at 8 µM is less than 0.05.

With `C[C@H](Sc1nncn1C)c1ccnc(NC(=O)c2cc3c(C(F)(F)F)cccc3[nH]2)c1` [Compound 120, N-[4-[(1S)-1-[(4-methyl-1,2,4-triazol-3-yl)sulfanyl]ethyl]-2-pyridyl]-4-(trifluoromethyl)-1H-indole-2-carboxamide], the fold induction at 1 µM was less than 0.6 in the experiment on T-cell [1] and less than 0.05 with T-cell [2]. Besides, the fold induction at 8 µM was less than 0.6 in the experiment with T-cell [1] and less than 0.05 with T-cell [2].

`Cc1nc2cc([C@H](C)Sc3nncn3C)cc(NC(=O)c3cccc(C(F)(F)F)n3)c2o1` [Compound 130a, (S)-N-(2-methyl-5-(1-((4-methyl-4H-1,2,4-triazol-3-yl)thio)ethyl)benzo[d]oxazol-7-yl)-6-(trifluoromethyl)picolinamide]: in the experiment with T-cell [1], the fold induction at 1 µM lay in the range of 0.601 to 0.8 and the fold induction at 8 µM is more than 1. In the experiment on T-cell [2], the fold induction at 1 µM was less than 0.05 and the fold induction at 8 µM is more than 0.201.
